In PubChem BioAssay (NCI) one finds TGI data, which are given here for 16 compounds.

Molecules are shown by their SMILES.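 Values below derive from 48-hour exposures of cells grown in 96-well plates, with endpoints linearly interpolated between the two concentrations bracketing the appropriate inhibition level. Definition used: TGI = concentration required for complete inhibition of growth.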 Where a SMILES comes first, the peptide text is derived from it. [ ]: non-standard residue; d: D form. The star is where a group is joined. Phe(4-NO2) = N[CH](Cc1ccc([N+](=O)[O-])cc1)C(=O)O; Boc = CC(C)(C)OC(=O)*

Common to all, as to experiment: NCI anticancer screen, dose series, 48 h
The subject of test [1] is CAKI-1 renal.
For test [2], the system named is HT29 colon.
Test [3] has as its system NCI/ADR-RES ovarian.
For test [4], the system named is PC-3 prostate.
In test [5] the test system is SF-295 CNS.
Test [6] relates to SK-MEL-5 melanoma.
Test [7] concerns SN12C renal.
Test [8] has as its system SNB-75 CNS.
Test [9] deals with EKVX NSCLC.

Take `CC(=O)OCC1OC(SC2=NC(=O)CS2)C(OC(C)=O)C(OC(C)=O)C1OC(C)=O` (stereo not drawn): the TGI in [1], in [2], in [3], in test [4], in test [5] and in [6] was over 100 µM in each case. The TGI in test [7] and in test [8] was over 100 µM each time.

For the compound `Cc1cn(C2CC(COCc3ccccc3)N(CCO[Si](C)(C)C(C)(C)C)O2)c(=O)[nH]c1=O` (stereo not drawn), the TGI was determined as 32.7 µM in test [1]; 28.7 µM in test [2]; 28.9 µM in test [3]; 18.1 µM in test [4]; 29.9 µM in [5]; 12.9 µM in test [6]. The TGI in [7] was 25.1 µM.

For `C=CC(C)(C)/C=C/c1ccc(O)cc1`, the TGI is over 100 µM in test [1]; over 100 µM in [9]; over 100 µM in test [2]; over 100 µM in test [3]; 89.4 µM in [4]; over 100 µM in [5]. Also, the TGI in test [6] and in test [7] was over 100 µM in each case.

Regarding `CCOC(=O)CCC(NC(=O)C(Cc1ccc([N+](=O)[O-])cc1)NC(=O)OC(C)(C)C)C(=O)NC(CCC(=O)OCC)C(=O)OCC` (stereo not drawn) (Boc-[Phe(4-NO2)]-Glu(OEt)-Glu(OEt)-OEt; configuration not given here), the TGI in test [2] amounted to 31.5 µM; in test [4] it was 39.5 µM; in [6], 31.2 µM; in [7] it was 49.7 µM; in test [8], 31.5 µM.

For `CC(C)[C@H](C)/C=C/[C@@H](C)C1CC[C@H]2[C@@]34C=C[C@]5(C[C@@H](O)CC[C@]5(C)[C@H]3CC[C@]12C)OO4` (stereo partly drawn), the TGI was 55.3 µM in [1]; over 100 µM in test [9]; 53.7 µM in test [2]; 50.2 µM in test [3]; over 100 µM in test [5]; 62.2 µM in test [6]. The TGI in test [7] was 79.7 µM; in [8], over 100 µM.

`NC1CCCCC1NCCNC1CCCCC1N` (stereo not drawn): the TGI is over 100 µM in test [1]; over 100 µM in test [9]; 36 µM in [2]; over 100 µM in test [3]; over 100 µM in [4]; over 100 µM in test [5]. Also, the TGI in test [6] and in test [7] was over 100 µM throughout.

For the compound `C/C(=N\Nc1nc2ccccc2[nH]1)c1ncccn1`, the TGI in test [1] was 23.7 µM; in test [9], 25.8 µM; in [3] it was 0.426 µM; in test [4], over 66 µM; in test [5], over 100 µM; in test [6], 1.34 µM. Besides, the TGI was 0.991 µM in test [7] and over 90.3 µM in test [8].

As to `CC(c1ccccc1)n1cncc1C(=O)NN1CCN(C)CC1` (stereo not drawn), the TGI in [1], in test [9], in [2], in test [3], in test [4] and in [5] was over 10 µM throughout. The TGI in test [6] and in test [7] was over 10 µM throughout.

With `N/N=C(/N)SCCCCCCCCCCS/C(N)=N/N`, the TGI in test [1] was over 100 µM; in test [9], over 100 µM; in [2] it was 27.7 µM; in test [3] it was 58.2 µM; in test [4], over 100 µM; in [5], 60.9 µM. In addition, the TGI in test [6] was 49 µM; in test [7] it was over 100 µM.

Consider `Cc1ccc(N=C/C=C(\Nc2ccc(C)cc2)c2ccc3ccccc3c2)cc1`, for which the TGI in [1] amounted to 12.7 µM; in [2], 2.32 µM; in test [3], 2.16 µM; in test [4], 18 µM; in [5], 3.9 µM; in [6], 12 µM. Moreover, the TGI in [8] amounted to 6.16 µM.

In the case of `Cc1nc(C)c(N2CCN(CN)CC2)c(=O)[nH]1`, the TGI in test [1], in test [9], in [2], in [3], in [4] and in [5] was over 100 µM throughout. In addition, the TGI in [6] and in test [7] was over 100 µM each time.

For `c1cc2cc3c4c5c(cc6ccc7cc8cc9c%10c8c8c7c6c5c8c5c%10c(c1C9N1CCOCCOCCOCCOCCOCC1)c2c45)C3` (stereo not drawn), the TGI in [9], in [2], in test [3], in test [4], in test [5] and in test [6] was over 100 µM throughout. Also, the TGI in [7] and in test [8] was over 100 µM throughout.

As for `O=[N+]([O-])c1ccc(N2N=C(c3c(O)ccc4ccccc34)CC2c2ccc(Cl)cc2)c([N+](=O)[O-])c1` (stereo not drawn), the TGI in [1] turned out to be 93.2 µM; in test [2], 67 µM; in test [3], 55.6 µM; in test [4], 66.4 µM; in [5] it was 39.1 µM; in test [6], 39.1 µM. Moreover, the TGI in test [7] and in test [8] was over 100 µM each time.

`O=C1C=CC2(O[C@H](C3CCCCC3)[C@@H](C3CCCCC3)O2)C(SC(=O)c2ccccc2)C1` (stereo partly drawn): the TGI in test [9] is 12.7 µM; in test [2] it was 3.85 µM; in [3], 13.1 µM; in test [4] it was 7.43 µM; in [5], 14.5 µM; in test [6], 5.53 µM. In addition, the TGI in [7] stood at 6.58 µM; in [8], 14.4 µM.

With `O=S(=O)(/N=S(/Nc1ccccc1)C(F)(F)Cl)c1ccccc1` (stereo not drawn), the TGI in test [9], in test [2], in [3], in test [4], in [5] and in test [6] was over 100 µM throughout. Also, the TGI in [7] and in test [8] was over 100 µM in each case.

On to `COc1ccc(/C=c2\[nH]c3nc(=O)c(N4CCCCC4)c(N)n3c2=O)cc1`, for which the TGI in [1], in test [9], in [2], in test [3], in [5] and in [6] was over 100 µM in each case. For the same compound, the TGI was over 100 µM in test [7] and 78.7 µM in [8].
